“Also recorded” adds a separate entry of the source.
How the values were obtained:
[1] = tested on: BM-derived human CD34+ cells; test: Senescence markers (p16, SA-β-Gal) in BM-derived cells of the human graft; assay type: in vivo, NSG mice
IL8, CXCL10, p21, p16 = test: Gene expression in BM-derived HSPCs (qPCR); assay type: cell-based, human; settings: HS/AAV6 ± Anakinra
Procedure: (§1) For gene expression analyses, total RNA was extracted using either miRNeasy Micro Kit (QIAGEN) according to the manufacturer's instructions and DNase treatment was performed using RNase-free DNase Set (QIAGEN). cDNA was synthetized with iScript cDNA Synthesis Kit (Bio-Rad). cDNA was then pre-amplified using TaqMan PreAmp Master Mix (ThermoFisher) and used for q-PCR in a Viia7 Real-time PCR thermal cycler using both Fast SYBR Green Master Mix (Thermofisher), after standard curve method optimization to reach the 100% primer efficiency for each couple of primers listed in 1. The relative expression of each target gene was first normalized to GUSB housekeeping genes expression and then represented as 2^-DCt for each sample or as fold changes (2^-DDCt) relative to the indicated control conditions.

human CD34+ HSPCs [2] = test: HDR gene editing efficiency in HSPCs (ddPCR, GFP flow cytometry); assay type: cell-based
human CD34+ HSPCs [3] = test: Culture composition of HSPC subpopulations (flow cytometry); assay type: cell-based
edited human CD34+ HSPCs = test: CD34+ HSPC xenotransplantation in NSG mice; assay type: in vivo
human CD34+ HSPCs [4] = test: Senescence markers in HSPCs ex vivo (p16); assay type: cell-based; settings: mPB-derived HSPCs, 24 h and 96 h upon GE
human CD34+ HSPCs [5] = test: Colony-forming unit cell (CFU-C) assay; assay type: cell-based
[6] = tested on: HDR-edited human HSPC clones; test: BAR-Seq clonal tracking of HDR-edited HSPCs; assay type: in vivo, NSG mice; settings: end of experiment; inhibitor at time of GE vs standard gene edited cells
Procedure: PCR amplicons for individual samples were generated by nested PCR using primers listed in Ferrari, S. et al., 2020, Nat Biotech 38(11):1298-1308 and starting from >50-100 ng of purified gDNA. The first PCR step was performed with GoTaq G2 DNA Polymerase (Promega) according to the manufacturer's instructions using the following amplification protocol: 95° C. for 5 min, (95° C. for 0.5 min, 60° C. for 0.5 min, 72° C. for 0.5 min)×20 cycles, 72° C. for 5 min. Forward primer was designed to bind donor template upstream the BAR sequence, while the reverse primer annealed outside the homology arm, thus amplifying 328 bp of the on-target integrated cassette. For targeted deep sequencing of the plasmid and AAV libraries, the reverse primer annealed to the homology arm. […] Library quality was assessed by Agilent Tapestation (Agilent Technologies). […]
BAR-Seq data were processed with TagDust57 (v.2.33) to identify and extract the BAR from each sample by taking advantage of the structural composition of the reads. […] BAR abundance was quantified by summing the number of identical sequences. […] BARs with a read count lower than three were discarded and the remaining set of BARs were identified as the valid BARs of this sample. […]

CDKN1A (p21) = test: p21 expression in edited HSPCs (qPCR); assay type: cell-based, human; settings: CB HSPCs, HS/AAV6 ± Anakinra, 24 and 96 h
Procedure: as §1

human CD34+ HSPCs [7] = test: Apoptosis analysis of HSPCs (Annexin V, 7AAD); assay type: cell-based; settings: HSPCs edited with COMBO, 24 h upon GE
IL1A, IL8, IL6, CCL2 = test: Inflammatory cytokine expression in edited HSPCs (qPCR); assay type: cell-based, human; settings: CB HSPCs, HS/AAV6; inhibitor at time of GE vs standard protocol

In the case of “Anakinra: recombinant and slightly modified form of the Human interleukin-1 receptor antagonist (IL-1Ra); SEQ ID NO: 3”, the “Percentage of senescent cells (p16, SA-β-Gal) in BM-derived CD34+ / HDR-edited cells of the human graft” value ([1]; NSG mice, endpoint 15-18 weeks, inhibitor at time of ex vivo GE) is reported as “decrease”, the “Senescence burden (p16+) in the human graft” value ([1]; mPB HSPCs, BM-derived HSPC) is reported as “reduction in the senescence burden in the human graft; also recorded: dampened GE-related senescence establishment” and the “Relative expression of pro-inflammatory cytokines (IL8, CXCL10) in BM-derived edited CD34+ cells” value (IL8, CXCL10, p21, p16) is reported as “decrease in pro-inflammatory cytokines expression”. For the same substance, the “Percentage of HDR-edited alleles (ddPCR)” value (human CD34+ HSPCs [2]; CB HSPCs, AAVS1 editing (HS/AAV6), inhibitor at time of GE (Anakinra 50 ng/μl, SC514 25 μM, GSE56 mRNA, ATMi) vs standard protocol) was “equal percentage of HDR-edited alleles; also recorded: did not affect HSPC ability to repair via HDR”, the “Percentage of GFP+ cells within HSPC subpopulations (GE efficiency)” value (human CD34+ HSPCs [2]; CB HSPCs, HS/AAV6, inhibitor at time of GE vs standard protocol) was “maintained the efficiency of GE across all HSPC subpopulations; also recorded: no significant differences in GE efficiency in all HSPC subpopulations” and the “HSPC ability to repair via HDR (GFP+ cells)” value (human CD34+ HSPCs [2]; HSPCs edited with COMBO) was “without impairing HSPC ability to repair via HDR”. The “HDR ability / percentage of GFP+ cells in HSPC subpopulations” value (human CD34+ HSPCs [2]; mPB-derived HSPCs, AAVS1, inhibitor within 15 minutes upon GE) was “did not affect HSPC ability to repair via HDR”, the “Culture composition of HSPC subpopulations” value (human CD34+ HSPCs [3]; CB HSPCs, 24 h and 96 h post gene editing ± Anakinra) was “No treatment skewed culture composition over time” and the Culture composition skewing (human CD34+ HSPCs [3]; HSPCs edited with COMBO, 24 h and 96 h) was “without overt apoptosis (FIG. 17I) and culture composition skewing”. The “HSPC culture composition and differentiation” value (human CD34+ HSPCs [3]; mPB-derived HSPCs ± Anakinra) was “did not alter HSPC culture composition and differentiation”, the “Percentage of human edited (GFP+) cells in peripheral blood” value (edited human CD34+ HSPCs; HS/AAV6 ± Anakinra) was “higher and stable percentage of GFP+ cells; also recorded: reproducible higher and stable levels of HDR-edited cells” and the “Percentage of GFP+ cells in BM human graft, HSPC, B and myeloid lineages” value (edited human CD34+ HSPCs; endpoint, HS/AAV6 ± Anakinra) was “improved long-term reconstitution”. The “Percentage of human HDR-edited cells in bone marrow” value (edited human CD34+ HSPCs; mPB HSPCs, 15 weeks) was “trend of higher levels of HDR-edited cells”, the “Percentage of human CD45+ cells in bone marrow” value (edited human CD34+ HSPCs; mPB HSPCs, matching low doses, 15 weeks) was “comparable human engraftment independently of Anakinra treatment” and the “Percentage of human CD45+ cells in peripheral blood (plateau of circulating cells)” value (edited human CD34+ HSPCs; saturating cell doses, HS/AAV6 ± Anakinra) was 35-40%. For the same substance, the “Percentage of p16+ senescent cells in GFP+ HDR-edited cells” value (human CD34+ HSPCs [4]) was “partially mitigated by Anakinra treatment”, the “Number of colonies (HSPC clonogenic potential)” value (human CD34+ HSPCs [5]; CB HSPCs, HS/AAV6, inhibitor at time of GE vs standard protocol, 24 h and 96 h post GE) was “significant increase in HSPC clonogenic potential; also recorded: strongly improved HSPC clonogenic potential in vitro; also recorded: strongly improved HSPC clonogenic potential ex-vivo” and the “Clonogenic potential (number of colonies)” value (human CD34+ HSPCs [5]; HSPCs edited with COMBO, 24 and 96 h) was “increase in the clonogenic potential of the cells”. For the same substance, the “Clonogenic potential of edited cells” value (human CD34+ HSPCs [5]; mPB-derived HSPCs, 24 and 96 h post GE) was “significantly improved the clonogenic potential of edited cells”, the “Number of dominant unique BARs in human BM-derived cells (polyclonal reconstitution)” value [6] was “higher long-term polyclonal reconstitution” and the “Relative expression of CDKN1A (p21)” value (CDKN1A (p21)) was “upregulated upon GE compared to negative controls independently from Anakinra treatment”. For the same substance, the Apoptosis (human CD34+ HSPCs [7]) was “without overt apoptosis” and the “Relative expression of inflammatory cytokine genes (IL1A, IL8, IL6, CCL2)” value (IL1A, IL8, IL6, CCL2) was “downregulated 96 h upon Anakinra treatment”.

Reference: US20240408145A1, “Gene Therapy” (Ospedale San Raffaele S.r.l., priority 2021, published 2024)
